For three molecules, IC50 results are on record in patent US20220235065A1 (Epizyme, Inc., priority 2016, published 2022).

Structures are written as SMILES.

For experiment [1], the target named is T1, EHMT1 (Homo sapiens, UniProt Q9H9B1).
T1 sequence (Q9H9B1 1-1298): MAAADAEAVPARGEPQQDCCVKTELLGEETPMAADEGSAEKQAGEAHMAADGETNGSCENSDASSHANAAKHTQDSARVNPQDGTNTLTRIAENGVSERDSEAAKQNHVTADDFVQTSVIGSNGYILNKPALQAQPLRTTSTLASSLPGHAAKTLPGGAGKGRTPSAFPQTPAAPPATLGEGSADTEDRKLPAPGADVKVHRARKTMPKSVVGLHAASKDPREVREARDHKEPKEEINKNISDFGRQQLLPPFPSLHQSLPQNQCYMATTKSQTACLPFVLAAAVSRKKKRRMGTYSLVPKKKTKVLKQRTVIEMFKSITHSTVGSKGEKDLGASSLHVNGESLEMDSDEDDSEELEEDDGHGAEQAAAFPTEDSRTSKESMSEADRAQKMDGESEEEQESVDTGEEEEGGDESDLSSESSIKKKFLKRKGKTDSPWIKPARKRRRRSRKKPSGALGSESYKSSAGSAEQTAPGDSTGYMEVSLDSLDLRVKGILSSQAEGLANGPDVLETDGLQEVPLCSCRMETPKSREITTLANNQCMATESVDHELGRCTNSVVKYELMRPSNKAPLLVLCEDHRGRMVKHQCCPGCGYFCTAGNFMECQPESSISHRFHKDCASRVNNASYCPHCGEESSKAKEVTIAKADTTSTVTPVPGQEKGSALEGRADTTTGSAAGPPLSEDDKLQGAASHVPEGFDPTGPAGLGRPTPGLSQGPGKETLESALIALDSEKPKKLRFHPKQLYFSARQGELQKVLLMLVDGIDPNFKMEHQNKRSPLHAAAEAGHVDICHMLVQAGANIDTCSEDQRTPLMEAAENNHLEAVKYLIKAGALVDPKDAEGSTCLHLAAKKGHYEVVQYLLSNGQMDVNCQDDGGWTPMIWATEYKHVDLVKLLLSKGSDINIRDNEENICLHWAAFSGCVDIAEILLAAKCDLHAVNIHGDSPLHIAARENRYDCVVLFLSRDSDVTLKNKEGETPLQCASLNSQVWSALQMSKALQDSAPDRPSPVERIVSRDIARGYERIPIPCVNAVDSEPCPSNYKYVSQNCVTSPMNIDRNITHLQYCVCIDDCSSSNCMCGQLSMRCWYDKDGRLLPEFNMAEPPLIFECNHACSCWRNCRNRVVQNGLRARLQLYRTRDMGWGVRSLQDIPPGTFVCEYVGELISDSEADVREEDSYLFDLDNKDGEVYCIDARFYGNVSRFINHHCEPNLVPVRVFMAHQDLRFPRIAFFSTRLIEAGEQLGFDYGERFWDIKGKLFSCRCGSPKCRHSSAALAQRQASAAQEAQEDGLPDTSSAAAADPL
The experiment in a line: EHMT1 PEP (EHMT1 peptide enzyme assay). The experiment is classed as biochemical. The conditions noted are these: peptide substrate enzyme assay.

Experiment [2] deals with T2, recombinant purified human EHMT2 913-1193 (Homo sapiens, UniProt Q96KQ7).
T2 construct: Recombinant purified human EHMT2 913-1193 (55 μM) synthesized by Viva was used for all experiments; purchased Viva
T2 sequence (Q96KQ7 913-1193): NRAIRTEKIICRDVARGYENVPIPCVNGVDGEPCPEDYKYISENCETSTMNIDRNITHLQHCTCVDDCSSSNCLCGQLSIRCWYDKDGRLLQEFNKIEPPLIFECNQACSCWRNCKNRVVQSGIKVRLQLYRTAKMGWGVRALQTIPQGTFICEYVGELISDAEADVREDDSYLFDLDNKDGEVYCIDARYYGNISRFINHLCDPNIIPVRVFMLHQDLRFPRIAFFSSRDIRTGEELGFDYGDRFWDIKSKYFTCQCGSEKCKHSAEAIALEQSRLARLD
The experiment in a line: EHMT2 enzyme assay on histone peptide substrate (3H-SAM Flashplate). The class given is biochemical. To be noted: read-out: EHMT2 PEP (IC50 μM). The procedure, abridged:
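Compounds (10-point 3-fold series, top 50 μM final, 2% DMSO) preincubated 30 min with 0.031 nM EHMT2 in 20 mM Bicine pH 7.5, 1 mM TCEP; reaction started with 3H-SAM and biotinylated H3 1-15 peptide, both at Km, run 60 min at room temperature. Flashplate capture; IC50 from four-parameter fit, triplicates.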

Take `CNc1cc(C)nc(Nc2ccc(Cl)c(-n3cc(C4CCCN4)cn3)c2)n1` (stereo not drawn) [Compound 330]: the IC50 in experiment [1] and in experiment [2] was less than 0.1 µM in each case.
With `CNCc1cc(-c2cc(Nc3nc(C)cc(NC)n3)ccc2OC)no1` [Compound 331], the IC50 in experiment [1] and in experiment [2] was less than 0.1 µM throughout.
For the molecule `CNc1cc(C)nc(Nc2ccc(OC)c(-c3cc4[nH]cc(C)c4cn3)c2)n1` [Compound 386], the IC50 in experiment [1] and in experiment [2] was less than 0.1 µM in each case.
